Several values for one entry are separate records, joined by “and”; a condition that tells them apart may be missing. Equal entries are not always repeated.
Tests used:
[1] = tested on: U87-MG cells (αV integrin); assay: FITC-uPAcyclin receptor binding/competition, U87-MG; design: species or system human; details: for FITC-uPAcyclin binding, single values: T-test sheet, single replicates of all EXPTs
Experimental: The U87-MG, U251-MG, and U138-MG cell lines were harvested and acid-treated, as described. Then, 2 × 10^6 cells/sample were exposed for 30 min at 4 °C to uPAcyclin or S-uPAcyclin at the indicated concentrations, or with the following antibodies: VNR147 monoclonal anti-αV integrin (Chemicon Int. Inc., Temecula, CA, USA), polyclonal anti-αV (Millipore, Burlington, MA, USA), monoclonal anti-α2 (Chemicon Int. Inc., Temecula, CA, USA), polyclonal anti-actin (Sigma-Aldrich, St. Louis, MO, USA), monoclonal anti-GAPDH (Abcam, Cambridge, UK), and purified vitronectin (VN, Corning, Glendale, AZ, USA). The cells were subsequently incubated with 50 nM FITC-uPAcyclin for 2 h at 4 °C, as described. At the end of incubation, the cells were washed and the cell surface-associated fluorescence was determined using a fluorimeter (VICTOR^TM X3-PerkinElmer, Waltham, MA, USA). All binding assays were performed three times, with duplicate samples, and analyzed as described in Section 2.11.
Figure 2 αV expression of U87-MG, U251-MG, and U138-MG GBM cells and specific binding of FITC-uPAcyclin. (A) U87-MG, U251-MG, U138-MG, HEK-293, and HEK-293/αV total cell lysates were subjected to Western blotting and probed using polyclonal anti-αV or polyclonal anti-actin as loading control. (B) A total of 2 × 10^6 U87-MG, U251-MG, U138-MG, HEK-293/αV, or HEK-293 cells were pre-incubated for 30 min at 4 °C with 500 nM uPAcyclin and further exposed to 50 nM FITC-uPAcyclin for 2 h at 4 °C. At the end of the incubation, the unbound material was washed and cell-associated FITC-uPAcyclin was quantitated by a fluorimeter. The net value of cell-surface-associated fluorescence, corresponding to the specific binding, is shown. (C) A total of 2 × 10^6 U87-MG, U251-MG, and U138-MG cells were pre-incubated for 30 min at 4 °C with increasing concentrations of unlabeled uPAcyclin and then assayed for binding of FITC-uPAcyclin, for 2 h at 4 °C. Cell-surface-associated fluorescence, as percentage of the samples […], is shown. (D) U87-MG cells were pre-incubated with uPAcyclin (1 pM, 100 nM), scrambled uPAcyclin (S-uPAcyclin, 1 pM and 100 nM)), vitronectin (200 µM), anti-αv polyclonal (anti-αV Pclonal, 5 µg/mL) or monoclonal (anti-αV MoAb, 5 µg/mL) or anti-α2 monoclonal (anti-α2 MoAb, 1 µg/mL), polyclonal anti-actin, and monoclonal anti GAPDH. Then, cells were treated as in B (* p-value < 0.05; *** p-value < 0.001).

U87-MG cells = assay: Boyden chamber migration (chemotaxis), U87-MG; format: cell-based, human; details: for % of the basal: sheet all data, Average all expts; for % of basal (T-TEST list) / % of basal, average / % of basal / cells n°/field: sheet data scrambled; for % of basal, average: Average 2 expts
Experimental: The migration and invasion assays were performed using Boyden chambers and 8 µm pore size PVP-free filters coated with 50 µg/mL of collagen type VI (Sigma), as previously described. For the invasion assays, collagen-coated filters were further coated with 50 µg/mL Matrigel^TM (Sigma). Briefly, 11 × 10^4 U87-MG, 4 × 10^4 U251-MG, or 4 × 10^4 U138-MG/sample were pre-treated for 40 min at 37 °C with the indicated effectors. Then, the cells were allowed to migrate for 3 h or to invade for 5 h at 37 °C toward 5% FBS in DMEM/0.1% BSA. At the end of both assays, the cells on the lower filter surface were fixed, stained with haematoxylin, and counted under an optical microscope (Zeiss Axiophot, Carl Zeiss, Milan, Italy) at 20× magnification. The migration and invasion experiments were conducted in triplicate for U87-MG and in duplicate for U251-MG and U138-MG. The migrated or invaded cells were reported as percentage of basal migration or invasion in the presence of DMEM/0.1% BSA, taken as 100%, and analyzed as reported in Section 2.11.
Figure 3 Inhibition of U87-MG, U251-MG, and U138-MG GBM cellular migration by uPAcyclin. Quantitative analysis of U87-MG (A), U251-MG (B), and U138-MG (C) directional migration. A total of 11 × 10^4 U87-MG/sample or 4 × 10^4 U251-MG or U138-MG/sample were pre-treated for 40 min at 37 °C with uPAcyclin or S-peptide at the indicated concentrations, anti-αV polyclonal (anti-αV Pclonal) or monoclonal (anti-αV MoAb) antibody, or anti-GAPDH, and anti-α2 monoclonal antibody (anti-α2 MoAb), and then assayed in Boyden chambers at 37 °C, either for basal (BSA) or directional 5% FBS-dependent migration for 3 h at 37 °C. At the end of incubation, the filters were processed as described in Methods. Basal migration was taken as 100% and all values were calculated relative to that (* p-value < 0.05; ** p-value < 0.005; *** p-value < 0.001).

[2] = 10pM, Expt n°2, replicate 1 (as labelled)
[3] = 10pM, Expt n°2, replicate 2 (as labelled)
[4] = 1nM, Expt n°2, replicate 1 (as labelled)
[5] = 1nM, Expt n°2, replicate 2 (as labelled)

Ac-PS[EELKPEPK]-NH2 (sidechain bridge or staple) [S-uPAcyclin, scrambled control peptide]
competition with FITC-uPAcyclin binding, in words ([1]; U87-MG, S-uPAcyclin 1 pM and 100 nM, vitronectin 200 µM, anti-αV 5 µg/mL, anti-α2 1 µg/mL): retains very little binding ability
FITC-uPAcyclin binding, single values ([1]; competitor 1 pM, listed as Scrambled uPAcyclin): 85 and 88 and 80 and 75
FITC-uPAcyclin binding, single values ([1]; competitor 100 nM, listed as Scrambled uPAcyclin): 74 and 80 and 82 and 75
% of the basal (U87-MG cells; 10pM): 169%
% of the basal (U87-MG cells; 1nM): 183%
% of the basal (U87-MG cells; 100nM): 160%
% of basal (T-TEST list) (U87-MG cells; 10 pM, T-TEST list value 1): 171
% of basal (T-TEST list) (U87-MG cells; 10 pM, T-TEST list value 2): 152
% of basal (T-TEST list) (U87-MG cells; 10 pM, T-TEST list value 3): 191
% of basal (T-TEST list) (U87-MG cells; 10 pM, T-TEST list value 4): 162
% of basal (T-TEST list) (U87-MG cells; 1 nM, T-TEST list value 1): 171
% of basal (T-TEST list) (U87-MG cells; 1 nM, T-TEST list value 2): 190
% of basal (T-TEST list) (U87-MG cells; 1 nM, T-TEST list value 3): 191
% of basal (T-TEST list) (U87-MG cells; 1 nM, T-TEST list value 4): 181
% of basal (T-TEST list) (U87-MG cells; 100nM, T-TEST list value 2): 158
% of basal (T-TEST list) (U87-MG cells; 100nM, T-TEST list value 3): 158
% of basal (T-TEST list) (U87-MG cells; 100nM, T-TEST list value 4): 162
effect on migration, in words (U87-MG cells; up to 100 nM, U87-MG (Figure 3A)): ineffective up to 100 nM

Ac-K^1P[ESPPEELK^10]-NH2 (sidechain bridge or staple) [uPAcyclin]
FITC-uPAcyclin binding, single values ([1]; competitor 1 pM): 70 and 77 and 74 and 75
FITC-uPAcyclin binding, single values ([1]; competitor 100 nM): 38 and 42 and 49 and 44 and 54
Kdapp ([1]; unlabeled uPAcyclin vs FITC-uPAcyclin, U87-MG, 4 °C): low nanomolar range
inhibition of migration (U87-MG cells; 1 nM, U87-MG, 5% FBS, 3 h): 70–80%
migration, in words (U87-MG cells; 100 nM, U87-MG, 5% FBS, 3 h): below background levels
% of the basal (U87-MG cells; 10pM): 168%
% of the basal (U87-MG cells; 1nM): 119%
% of the basal (U87-MG cells; 100nM): 87%
% of basal, average (U87-MG cells; 10pM): 143.5%
% of basal (U87-MG cells; 10pM, Expt n°1, replicate 1): 133%
cells n°/field (U87-MG cells; 10pM, Expt n°1, replicate 1): 14 cells n°/field
% of basal (U87-MG cells; 10pM, Expt n°1, replicate 2): 143%
cells n°/field (U87-MG cells; 10pM, Expt n°1, replicate 2): 15 cells n°/field
% of basal (U87-MG cells; [2]): 152%
cells n°/field (U87-MG cells; [2]): 16 cells n°/field
% of basal (U87-MG cells; [3]): 133%
cells n°/field (U87-MG cells; [3]): 14 cells n°/field
% of basal (T-TEST list) (U87-MG cells; 10 pM, T-TEST list value 1): 143
% of basal (T-TEST list) (U87-MG cells; 10 pM, T-TEST list value 2): 152
% of basal (T-TEST list) (U87-MG cells; 10 pM, T-TEST list value 3): 133
% of basal (T-TEST list) (U87-MG cells; 10 pM, T-TEST list value 4): 143
% of basal, average (U87-MG cells; 1nM): 131%
% of basal (U87-MG cells; 1nM, Expt n°1, replicate 1): 124%
cells n°/field (U87-MG cells; 1nM, Expt n°1, replicate 1): 13 cells n°/field
% of basal (U87-MG cells; 1nM, Expt n°1, replicate 2): 124%
cells n°/field (U87-MG cells; 1nM, Expt n°1, replicate 2): 13 cells n°/field
% of basal (U87-MG cells; [4]): 143%
cells n°/field (U87-MG cells; [4]): 15 cells n°/field
% of basal (U87-MG cells; [5]): 171%
cells n°/field (U87-MG cells; [5]): 18 cells n°/field
% of basal (T-TEST list) (U87-MG cells; 1 nM, T-TEST list value 1): 133
% of basal (T-TEST list) (U87-MG cells; 1 nM, T-TEST list value 2): 143
% of basal (T-TEST list) (U87-MG cells; 1 nM, T-TEST list value 3): 124
% of basal (T-TEST list) (U87-MG cells; 1 nM, T-TEST list value 4): 124

— article PMC10571957, “αV-Integrin-Dependent Inhibition of Glioblastoma Cell Migration, Invasion and Vasculogenic Mimicry by the uPAcyclin Decapeptide” (Cancers, 2023)
